# Source: US20250304643A1, “PEPTIDE DUAL AGONISTS OF GIPR AND GLP2R” (BAINAN BIOTECH APS, priority 2021, published 2025)
# Key:
# [1] = biological target: T1, human GLP-1R (Homo sapiens, UniProt P43220); test: HitHunter cAMP assay in transiently transfected COS-7 cells, human GLP-1R; assay type: cell-based; details: Emax normalized to highest concentration of endogenous ligand; Table 3
# T1 construct: host or cells: COS-7
# Method: (§1) The next day the assay was initiated by washing with HEPES buffered saline (HBS) and followed by an incubation step with assay buffer (HBS added 1 mM isobutyl-1-methylxanthine (IBMX)) for 30 min at 37° C. The ligands were then added and incubated for an additional 30 min at 37° C. After ligand incubation, the HitHunter® CAMP assay (Eurofins DiscoverX, Fremont, […] USA) was carried out according to the manufacturer's instructions. Luminescence was measured by PerkinElmer™ EnVision 2014 Multilabel Reader (PerkinElmer, Waltham, MA). The potencies (EC50 values) were determined by nonlinear regression using GraphPad Prism 9 (San Diego, California, USA). Sigmoid curves were fitted logistically. The efficacies (Emax values) were determined by normalization to the highest concentration applied of the endogenous ligand for each receptor.
# [2] = biological target: T2, human SNAP-GIPR (Homo sapiens, UniProt P48546); assay type: cell-based; design: AUC ± SD: unit not given beside the values
# T2 construct: host or cells: HEK293A
# T2 sequence (P48546 22-466): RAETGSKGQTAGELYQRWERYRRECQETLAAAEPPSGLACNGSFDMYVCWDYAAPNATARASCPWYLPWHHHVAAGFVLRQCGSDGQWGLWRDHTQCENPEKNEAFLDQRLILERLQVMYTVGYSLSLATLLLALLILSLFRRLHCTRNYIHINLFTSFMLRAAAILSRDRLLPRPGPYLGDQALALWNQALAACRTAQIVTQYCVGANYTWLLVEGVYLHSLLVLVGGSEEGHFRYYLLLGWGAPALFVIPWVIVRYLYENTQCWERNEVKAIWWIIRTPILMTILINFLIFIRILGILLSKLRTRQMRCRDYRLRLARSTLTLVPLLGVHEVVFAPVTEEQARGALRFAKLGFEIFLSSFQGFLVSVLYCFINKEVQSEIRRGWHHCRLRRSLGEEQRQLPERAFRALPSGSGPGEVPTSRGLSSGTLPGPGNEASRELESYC
# [3] = system: bone turnover markers CTX (resorption) and P1NP (formation); test: bone turnover markers CTX and P1NP in rats after SC injection; assay type: in vivo, rat
# Method: Sprague Dawley female rats, age 10 w (Janvier Labs, France), n=4, were fasted from 06:00 until after final blood sample. A baseline blood sample was taken just before subcutaneous administration of compound at 10:00. Compounds were dissolved in 50 mM phosphate buffer, pH 7.5+0.1% Haemaccel. Dose: Compound no. 11 4248.5 μg/kg.
# Blood samples were taken at 10:00, 14:00, 18:00 and 22:00. Plasma was obtained within 20 min after blood sampling and stored at −20C.
# CTX and P1NP were measured using RatLaps (CTX-I) EIA and Rat/mouse P1NP EIA (Immunidiagnosticsystems, UK) according to protocols.
# Data are presented using GraphPad Prism V9.3.0 as % of baseline as mean+/−SEM and analyzed by 2-way Anova with Sidaks multiple comparisons tests or by unpaired t-test.
# [4] = biological target: T3, rat GIPR (Rattus norvegicus, UniProt P43219); test: HitHunter cAMP assay in transiently transfected COS-7 cells, rat GIPR; assay type: cell-based; details: Emax normalized to highest concentration of endogenous ligand
# T3 construct: expressed in transfected cells; host or cells: COS-7
# T3 sequence (P43219 19-455): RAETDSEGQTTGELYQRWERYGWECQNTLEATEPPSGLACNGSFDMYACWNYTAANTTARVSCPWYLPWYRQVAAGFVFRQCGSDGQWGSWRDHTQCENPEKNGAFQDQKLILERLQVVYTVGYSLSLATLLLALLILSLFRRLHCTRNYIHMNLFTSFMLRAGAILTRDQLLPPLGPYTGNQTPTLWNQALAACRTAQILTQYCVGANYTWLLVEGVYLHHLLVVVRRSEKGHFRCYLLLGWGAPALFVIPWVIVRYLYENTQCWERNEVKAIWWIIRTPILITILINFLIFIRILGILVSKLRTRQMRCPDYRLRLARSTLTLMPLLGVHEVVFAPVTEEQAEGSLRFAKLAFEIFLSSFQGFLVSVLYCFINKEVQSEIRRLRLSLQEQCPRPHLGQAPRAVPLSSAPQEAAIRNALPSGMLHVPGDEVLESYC
# Method: as §1
# [5] = biological target: T4, rat GLP-2R (Rattus norvegicus, UniProt Q9Z0W0); test: HitHunter cAMP assay in transiently transfected COS-7 cells, rat GLP-2R; assay type: cell-based; details: Emax normalized to highest concentration of endogenous ligand
# T4 construct: expressed in transfected cells; host or cells: COS-7
# T4 sequence (Q9Z0W0 1-550): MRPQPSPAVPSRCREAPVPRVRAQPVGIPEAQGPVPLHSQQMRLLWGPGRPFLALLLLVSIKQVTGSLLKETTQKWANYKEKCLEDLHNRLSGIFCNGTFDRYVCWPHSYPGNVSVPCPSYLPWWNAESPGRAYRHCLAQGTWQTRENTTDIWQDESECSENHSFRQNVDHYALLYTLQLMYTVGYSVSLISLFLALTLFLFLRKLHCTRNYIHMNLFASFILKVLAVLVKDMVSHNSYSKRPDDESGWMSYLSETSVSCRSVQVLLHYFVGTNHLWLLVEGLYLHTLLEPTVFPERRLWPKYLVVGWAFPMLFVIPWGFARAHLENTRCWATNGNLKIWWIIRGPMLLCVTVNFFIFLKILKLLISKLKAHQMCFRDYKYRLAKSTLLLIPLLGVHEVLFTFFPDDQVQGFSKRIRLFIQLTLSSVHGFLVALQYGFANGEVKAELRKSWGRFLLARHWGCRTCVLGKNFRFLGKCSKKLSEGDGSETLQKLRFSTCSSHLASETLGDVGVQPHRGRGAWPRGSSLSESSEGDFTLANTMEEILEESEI
# Method: as §1
# [6] = system: macaque GIPR; test: HitHunter cAMP assay in transiently transfected COS-7 cells, macaque GIPR; assay type: cell-based
# Method: as §1
# [7] = biological target: T5, human GIPR (Homo sapiens, UniProt P48546); assay type: cell-based; design: host or cells: COS-7; details: Emax normalized to highest concentration of endogenous ligand; Table 2
# T5 sequence (P48546 22-466): T2 sequence (P48546 22-466)
# [8] = biological target: T5, human GIPR; assay type: cell-based; design: host or cells: HEK293; details: beta-arrestin 2 recruitment; for AUC ± SD: AUC of sigmoid curves up to 100 nM
# Method: HEK293 cells were cultured at 10% CO2 and 37° C. in DMEM-GlutaMAX™-I supplemented with 10% FBS, 180 units/mL penicillin and 45 g/mL streptomycin. These cells were transfected using PEI for the beta-arrestin recruitment assay as described in detail in (van der Velden et al., 2021).
# HEK293 cells were transiently transfected with human GIPR, the donor Rluc8-Arrestin-3-Sp1 (beta-arrestin 2 recruitment), the acceptor mem-linker-citrine-SH3, and the GPCR kinase 2 (GRK2). Two days following transfection, the cells were washed with PBS and resuspended in PBS with 5 mM glucose. Then, 85 μL of the cell suspension solution was added to each well of a white 96-well plate followed by the addition of PBS with 5 μM coelenterazine-h. Following 10 min incubation, increasing concentrations of ligands were added and incubated for an additional 30 min. Luminescence was measured with the Berthold Technologies Mithras Multilabel Reader (Rluc8 at 485±40 nm and YFP at 530±25 nm). The potencies (EC50 values) were determined by nonlinear regression using GraphPad Prism 9 (San Diego, California, USA). Sigmoid curves were fitted logistically. The efficacies (Emax values) were determined by normalization to the highest concentration applied of the endogenous ligand (GIP) for the GIPR.
# [9] = biological target: T5, human GIPR; details: 10 nM ligand for 90 min, then 125I-GIP(1-42) labelling; FIG. 3
# Method: COS-7 cells were cultured at 10% CO2 and 37° C. in Dulbecco's Modified Eagle Medium (DMEM) 1885 supplemented with 10% fetal bovine serum (FBS), 2 mM glutamine, 180 units/ml penicillin, and 45 g/ml streptomycin.
# The following day, the media of the cells were changed to DMEM supplemented 2% FBS and preincubated either with or without 10 nM ligand for 90 min. […] After incubation, the cells were washed twice in 100 μl per well ice-cold binding buffer and lysed using 175 μl per well of 200 mM NaOH with 1% SDS for 30 min. The samples were analyzed by the Wizard Gamme Counter (PerkinElmer, Waltham, MA). Data was analyzed by comparing the counts measured from the ligand preincubated and non-preincubated cells.
# T1 sequence (P43220 24-463): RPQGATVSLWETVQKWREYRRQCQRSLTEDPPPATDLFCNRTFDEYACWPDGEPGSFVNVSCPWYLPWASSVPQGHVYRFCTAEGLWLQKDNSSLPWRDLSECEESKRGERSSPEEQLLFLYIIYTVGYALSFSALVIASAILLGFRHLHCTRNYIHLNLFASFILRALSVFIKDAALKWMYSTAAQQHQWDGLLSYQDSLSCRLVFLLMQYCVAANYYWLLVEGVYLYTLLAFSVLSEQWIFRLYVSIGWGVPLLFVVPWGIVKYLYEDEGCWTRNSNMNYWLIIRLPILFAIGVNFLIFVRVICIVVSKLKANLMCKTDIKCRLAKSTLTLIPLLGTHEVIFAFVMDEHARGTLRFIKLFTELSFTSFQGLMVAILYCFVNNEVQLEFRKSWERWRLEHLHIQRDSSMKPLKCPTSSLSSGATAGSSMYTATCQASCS
substance,measurement,setting,value
H-Aib-DGTFISDY-K(γGlu-C16)-TILDNLAARDFINWLIQTKITK-OH [Compound no. 11],Efficacy GLP-1R,[1],11
same,AUC ± SD,[2],19 ± 2
same,Emax ± SD (%),"[2]; GIPR internalization, NA = no activity",24 ± 6%
same,"formation marker P1NP, % of baseline","[3]; female rats, SC 4248.5 μg/kg, time 14:00 and 18:00, FIG. 2B",increase
same,"resorption marker CTX, % of baseline","[3]; female rats, SC 4248.5 μg/kg, time point 14:00, p-value=0.08, FIG. 2A",reduced (ns) increase
same,CTX AUC,"[3]; rat, in vivo, sc",tendency towards a reduction
same,rGIPR Efficacy (%),[4],107.0%
same,rGLP-2R Efficacy (%),[5],104.0%
same,maGIPR Efficacy (%),"[6]; Emax normalized to highest concentration of the endogenous ligand, COS-7 cells",92.5%
same,maGIPR pEC50,"[6]; cAMP, transiently transfected COS-7 cells",9.0
same,Efficacy GIPR,[7],115
same,AUC ± SD,[8],61 ± 14
same,Emax ± SD (%),"[8]; normalized to highest concentration of GIP, NA = no activity",41 ± 6%
"YAEGTFISDYSIAMDKIHQQDFVNWLLAQKGKKNDWKHNITQ [hGIP, reference compound]",AUC ± SD,[2],204 ± 3
same,GIPR expression at the cell surface following ligand preincubation,[9],downregulation of the GIPR from the cell surface
same,AUC ± SD,[8],223 ± 16
